Results as given in PubChem BioAssay (NCI).
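Cultured in 96-well plates, cells were exposed to test compound for 48 hours across five concentrations. The concentration for 50% growth inhibition is given as GI50. TGI marks complete inhibition of growth.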

Assays:
Experiment in all cases: NCI tumour cell line growth inhibition, 48 h
HCT-116 colon = tested on: HCT-116 colon
SK-MEL-5 melanoma = tested on: SK-MEL-5 melanoma
RXF 393 renal = tested on: RXF 393 renal
HT29 colon = tested on: HT29 colon
U251 CNS = tested on: U251 CNS
M14 melanoma = tested on: M14 melanoma
HL-60(TB) leukemia = tested on: HL-60(TB) leukemia
KM12 colon = tested on: KM12 colon
SK-OV-3 ovarian = tested on: SK-OV-3 ovarian
ACHN renal = tested on: ACHN renal
SF-268 CNS = tested on: SF-268 CNS
LOX IMVI melanoma = tested on: LOX IMVI melanoma
OVCAR-5 ovarian = tested on: OVCAR-5 ovarian
MDA-MB-231 breast = tested on: MDA-MB-231 breast
TK-10 renal = tested on: TK-10 renal
UO-31 renal = tested on: UO-31 renal
A549 NSCLC = tested on: A549 NSCLC
OVCAR-3 ovarian = tested on: OVCAR-3 ovarian
MOLT-4 leukemia = tested on: MOLT-4 leukemia
NCI-H460 lung = tested on: NCI-H460 lung
SK-MEL-28 melanoma = tested on: SK-MEL-28 melanoma
HCC-2998 colon = tested on: HCC-2998 colon
PC-3 prostate = tested on: PC-3 prostate
IGROV1 ovarian = tested on: IGROV1 ovarian
K-562 leukemia = tested on: K-562 leukemia
COLO 205 colon = tested on: COLO 205 colon
OVCAR-4 ovarian = tested on: OVCAR-4 ovarian
RPMI-8226 leukemia = tested on: RPMI-8226 leukemia
HOP-92 NSCLC = tested on: HOP-92 NSCLC
786-0 renal = tested on: 786-0 renal
HS 578T breast = tested on: HS 578T breast
DU-145 prostate = tested on: DU-145 prostate
BT-549 breast = tested on: BT-549 breast
SR leukemia = tested on: SR leukemia
NCI-H226 lung = tested on: NCI-H226 lung
UACC-62 melanoma = tested on: UACC-62 melanoma
SNB-19 CNS = tested on: SNB-19 CNS
NCI/ADR-RES ovarian = tested on: NCI/ADR-RES ovarian
MCF7 breast = tested on: MCF7 breast
UACC-257 melanoma = tested on: UACC-257 melanoma
SN12C renal = tested on: SN12C renal
A498 renal = tested on: A498 renal
MALME-3M melanoma = tested on: MALME-3M melanoma
T-47D breast = tested on: T-47D breast
EKVX NSCLC = tested on: EKVX NSCLC
MDA-MB-435 = tested on: MDA-MB-435
HCT-15 colon = tested on: HCT-15 colon
SF-539 CNS = tested on: SF-539 CNS
CAKI-1 renal = tested on: CAKI-1 renal
CCRF-CEM leukemia = tested on: CCRF-CEM leukemia
NCI-H23 lung = tested on: NCI-H23 lung
OVCAR-8 ovarian = tested on: OVCAR-8 ovarian
SNB-75 CNS = tested on: SNB-75 CNS
SK-MEL-2 melanoma = tested on: SK-MEL-2 melanoma
SW-620 colon = tested on: SW-620 colon
SF-295 CNS = tested on: SF-295 CNS
NCI-H522 lung = tested on: NCI-H522 lung
HOP-62 NSCLC = tested on: HOP-62 NSCLC

COc1ccc(/C=C/c2nc(NCCCN(C)C)c3ccccc3n2)cc1
GI50 (HCT-116 colon): 2.3 µM | TGI (HCT-116 colon): 5.88 µM | GI50 (SK-MEL-5 melanoma): 1.71 µM | TGI (SK-MEL-5 melanoma): 3.27 µM | GI50 (RXF 393 renal): 3.68 µM | TGI (RXF 393 renal): 12.1 µM | GI50 (HT29 colon): 1.61 µM | TGI (HT29 colon): 3.13 µM | GI50 (U251 CNS): 1.79 µM | TGI (U251 CNS): 3.37 µM | GI50 (M14 melanoma): 2.16 µM | TGI (M14 melanoma): 4.81 µM | GI50 (HL-60(TB) leukemia): 1.71 µM | TGI (HL-60(TB) leukemia): 3.86 µM | GI50 (KM12 colon): 1.73 µM | TGI (KM12 colon): 3.13 µM | GI50 (SK-OV-3 ovarian): 2.51 µM | TGI (SK-OV-3 ovarian): 6.3 µM | GI50 (ACHN renal): 17.1 µM | TGI (ACHN renal): 31.7 µM | GI50 (SF-268 CNS): 1.86 µM | TGI (SF-268 CNS): 4.17 µM | GI50 (LOX IMVI melanoma): 1.83 µM | TGI (LOX IMVI melanoma): 3.42 µM | GI50 (OVCAR-5 ovarian): 5.58 µM | TGI (OVCAR-5 ovarian): 13.6 µM | GI50 (MDA-MB-231 breast): 1.99 µM | TGI (MDA-MB-231 breast): 5.24 µM | GI50 (TK-10 renal): 6.59 µM | TGI (TK-10 renal): 22 µM | GI50 (UO-31 renal): 14.1 µM | TGI (UO-31 renal): 29.4 µM | GI50 (A549 NSCLC): 2.62 µM | TGI (A549 NSCLC): 7.65 µM | GI50 (OVCAR-3 ovarian): 4.88 µM | TGI (OVCAR-3 ovarian): 11.4 µM | GI50 (MOLT-4 leukemia): 1.61 µM | TGI (MOLT-4 leukemia): 3.55 µM | GI50 (NCI-H460 lung): 2.19 µM | TGI (NCI-H460 lung): 4.7 µM | GI50 (SK-MEL-28 melanoma): 4.57 µM | TGI (SK-MEL-28 melanoma): 9 µM | GI50 (HCC-2998 colon): 13.8 µM | TGI (HCC-2998 colon): 27.6 µM | GI50 (PC-3 prostate): 3.35 µM | TGI (PC-3 prostate): 15.2 µM | GI50 (IGROV1 ovarian): 3.39 µM | TGI (IGROV1 ovarian): 10.6 µM | GI50 (K-562 leukemia): 1.99 µM | TGI (K-562 leukemia): 4.4 µM | GI50 (COLO 205 colon): 1.8 µM | TGI (COLO 205 colon): 3.3 µM | GI50 (OVCAR-4 ovarian): 2.07 µM | TGI (OVCAR-4 ovarian): 5.58 µM | GI50 (RPMI-8226 leukemia): 1.78 µM | TGI (RPMI-8226 leukemia): 4.64 µM | GI50 (HOP-92 NSCLC): 2.5 µM | TGI (HOP-92 NSCLC): 8.15 µM | GI50 (786-0 renal): 13.3 µM | TGI (786-0 renal): 26.7 µM | GI50 (HS 578T breast): 3.22 µM | TGI (HS 578T breast): 11 µM | GI50 (DU-145 prostate): 13.9 µM | TGI (DU-145 prostate): 27 µM | GI50 (BT-549 breast): 1.55 µM | TGI (BT-549 breast): 5.01 µM | GI50 (SR leukemia): 1.86 µM | TGI (SR leukemia): 4.2 µM | GI50 (NCI-H226 lung): 12 µM | TGI (NCI-H226 lung): 30.7 µM | GI50 (UACC-62 melanoma): 11.1 µM | TGI (UACC-62 melanoma): 25.4 µM | GI50 (SNB-19 CNS): 4.31 µM | TGI (SNB-19 CNS): 9.67 µM | GI50 (NCI/ADR-RES ovarian): > 100 µM | TGI (NCI/ADR-RES ovarian): > 100 µM | GI50 (MCF7 breast): 1.72 µM | TGI (MCF7 breast): 3.23 µM | GI50 (UACC-257 melanoma): 1.87 µM | TGI (UACC-257 melanoma): 3.65 µM | GI50 (SN12C renal): 11.8 µM | TGI (SN12C renal): 29.3 µM | GI50 (A498 renal): 14 µM | TGI (A498 renal): 27.7 µM | GI50 (MALME-3M melanoma): 1.62 µM | TGI (MALME-3M melanoma): 3.18 µM | GI50 (T-47D breast): 1.81 µM | TGI (T-47D breast): 3.61 µM | GI50 (EKVX NSCLC): 5.17 µM | TGI (EKVX NSCLC): 21.1 µM | GI50 (MDA-MB-435): 1.81 µM | TGI (MDA-MB-435): 3.65 µM | GI50 (HCT-15 colon): 16.3 µM | TGI (HCT-15 colon): 30.8 µM | GI50 (SF-539 CNS): 1.69 µM | TGI (SF-539 CNS): 3.15 µM | GI50 (CAKI-1 renal): 16.5 µM | TGI (CAKI-1 renal): 33.7 µM | GI50 (CCRF-CEM leukemia): 2.02 µM | TGI (CCRF-CEM leukemia): 4.53 µM | GI50 (NCI-H23 lung): 5.43 µM | TGI (NCI-H23 lung): 11.5 µM | GI50 (OVCAR-8 ovarian): 4.75 µM | TGI (OVCAR-8 ovarian): 18.7 µM | GI50 (SNB-75 CNS): 1.34 µM | TGI (SNB-75 CNS): 2.88 µM | GI50 (SK-MEL-2 melanoma): 1.88 µM | TGI (SK-MEL-2 melanoma): 3.52 µM | GI50 (SW-620 colon): 1.67 µM | TGI (SW-620 colon): 3.49 µM | GI50 (SF-295 CNS): 5.15 µM | TGI (SF-295 CNS): 11 µM | GI50 (NCI-H522 lung): 1.83 µM | TGI (NCI-H522 lung): 3.66 µM | GI50 (HOP-62 NSCLC): 5.16 µM | TGI (HOP-62 NSCLC): 9.74 µM

Cc1cc(CNC(=O)OCc2ccccc2)c(C)c2c1Oc1ccccc1O2
TGI (HCT-116 colon): > 100 µM | TGI (SK-MEL-5 melanoma): > 100 µM | TGI (RXF 393 renal): 32.6 µM | TGI (HT29 colon): > 68.8 µM | TGI (U251 CNS): > 67.3 µM | TGI (M14 melanoma): > 100 µM | GI50 (HL-60(TB) leukemia): > 100 µM | TGI (HL-60(TB) leukemia): > 100 µM | TGI (KM12 colon): > 100 µM | TGI (SK-OV-3 ovarian): 51.3 µM | TGI (ACHN renal): > 100 µM | TGI (SF-268 CNS): > 74.3 µM | TGI (LOX IMVI melanoma): > 100 µM | TGI (OVCAR-5 ovarian): > 100 µM | TGI (MDA-MB-231 breast): > 60.5 µM | TGI (TK-10 renal): > 100 µM | TGI (UO-31 renal): > 100 µM | TGI (A549 NSCLC): 97.7 µM | TGI (OVCAR-3 ovarian): > 100 µM | TGI (MOLT-4 leukemia): > 100 µM | TGI (NCI-H460 lung): > 100 µM | TGI (SK-MEL-28 melanoma): > 100 µM | TGI (HCC-2998 colon): > 100 µM | TGI (PC-3 prostate): > 100 µM | TGI (IGROV1 ovarian): > 100 µM | TGI (K-562 leukemia): > 100 µM | TGI (COLO 205 colon): > 100 µM | TGI (OVCAR-4 ovarian): 72.3 µM | TGI (RPMI-8226 leukemia): > 100 µM | TGI (HOP-92 NSCLC): 26.1 µM | TGI (786-0 renal): 35.6 µM | TGI (HS 578T breast): 53.6 µM | TGI (DU-145 prostate): > 100 µM | TGI (BT-549 breast): > 100 µM | TGI (SR leukemia): > 100 µM | TGI (NCI-H226 lung): > 93.6 µM | TGI (UACC-62 melanoma): > 100 µM | TGI (SNB-19 CNS): > 92.9 µM | TGI (NCI/ADR-RES ovarian): > 71.4 µM | TGI (MCF7 breast): > 100 µM | TGI (UACC-257 melanoma): > 100 µM | TGI (SN12C renal): > 91.8 µM | TGI (A498 renal): 74.7 µM | TGI (MALME-3M melanoma): > 100 µM | TGI (T-47D breast): > 100 µM | TGI (EKVX NSCLC): > 100 µM | TGI (MDA-MB-435): > 100 µM | TGI (HCT-15 colon): > 100 µM | GI50 (SF-539 CNS): 19.5 µM | TGI (SF-539 CNS): 47.9 µM | TGI (CAKI-1 renal): > 87.5 µM | TGI (CCRF-CEM leukemia): > 100 µM | TGI (NCI-H23 lung): > 100 µM | TGI (OVCAR-8 ovarian): 58.5 µM | TGI (SNB-75 CNS): 36.3 µM | TGI (SK-MEL-2 melanoma): > 27.3 µM | TGI (SW-620 colon): > 100 µM | TGI (SF-295 CNS): > 100 µM | TGI (NCI-H522 lung): 90.7 µM | TGI (HOP-62 NSCLC): 53.3 µM
